Measured values published in US10479780B2, “Aminopyrazole derivatives” (Chugai Seiyaku Kabushiki Kaisha, priority 2015, dated 2019).
Like-named read-outs stand apart in the source and are kept apart here.

How the values were obtained:
Type in all cases: biochemical
human Yes1 enzyme = biological target: T1, human Yes1 enzyme (Homo sapiens, UniProt P07947); experiment: Yes1 enzyme inhibitory activity (time-resolved fluorometry, biotinylated peptide phosphorylation); settings: read-out: YES_IC50
T1 construct: made in house
Outline: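 Inhibition was expressed against a compound-free control to give IC50, using TR-FRET read-out (Eu-cryptate anti-pTyr antibody, streptavidin-XL665).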

human Src enzyme = biological target: T2, human Src enzyme (Homo sapiens, UniProt P12931); experiment: Src enzyme inhibitory activity (time-resolved fluorometry, biotinylated peptide phosphorylation); settings: read-out: SRC_IC50
T2 construct: purchased Carna Biosciences, Inc. 08-173
Outline: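 Compounds were tested for blocking tyrosine phosphorylation of a biotinylated peptide substrate by recombinant human Src. Phosphorylated product was quantified by time-resolved fluorometry using europium cryptate and XL665 conjugates, and IC50 was calculated against the compound-free control.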

human Lck enzyme = biological target: T3, human Lck enzyme (Homo sapiens, UniProt P06239); experiment: Lck enzyme inhibitory activity (time-resolved fluorometry, biotinylated peptide phosphorylation); settings: read-out: LCK_IC50
T3 construct: purchased Carna Biosciences, Inc. 08-170
Outline: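 Readout pairs a europium cryptate-labelled anti-phosphotyrosine antibody with XL665-streptavidin, measured by time-resolved fluorescence. IC50 derived from percent inhibition against untreated controls.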

[1] = biotinylated peptide phosphorylation

T1 sequence (P07947 whole entry): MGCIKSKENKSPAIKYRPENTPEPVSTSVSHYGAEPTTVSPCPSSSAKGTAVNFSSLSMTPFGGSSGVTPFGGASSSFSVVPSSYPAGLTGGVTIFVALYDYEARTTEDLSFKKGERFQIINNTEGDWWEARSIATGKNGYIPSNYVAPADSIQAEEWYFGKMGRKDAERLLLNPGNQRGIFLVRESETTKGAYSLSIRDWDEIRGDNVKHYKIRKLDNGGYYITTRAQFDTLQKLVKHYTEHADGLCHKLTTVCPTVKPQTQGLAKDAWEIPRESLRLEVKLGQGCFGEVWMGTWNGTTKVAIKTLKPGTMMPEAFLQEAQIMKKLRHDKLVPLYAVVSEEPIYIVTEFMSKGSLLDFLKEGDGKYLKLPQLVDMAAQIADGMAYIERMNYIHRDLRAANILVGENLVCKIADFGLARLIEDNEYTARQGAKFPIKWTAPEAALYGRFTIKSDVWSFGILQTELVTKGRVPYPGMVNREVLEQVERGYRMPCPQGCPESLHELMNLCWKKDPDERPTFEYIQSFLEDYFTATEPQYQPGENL
T3 sequence (P06239 whole entry): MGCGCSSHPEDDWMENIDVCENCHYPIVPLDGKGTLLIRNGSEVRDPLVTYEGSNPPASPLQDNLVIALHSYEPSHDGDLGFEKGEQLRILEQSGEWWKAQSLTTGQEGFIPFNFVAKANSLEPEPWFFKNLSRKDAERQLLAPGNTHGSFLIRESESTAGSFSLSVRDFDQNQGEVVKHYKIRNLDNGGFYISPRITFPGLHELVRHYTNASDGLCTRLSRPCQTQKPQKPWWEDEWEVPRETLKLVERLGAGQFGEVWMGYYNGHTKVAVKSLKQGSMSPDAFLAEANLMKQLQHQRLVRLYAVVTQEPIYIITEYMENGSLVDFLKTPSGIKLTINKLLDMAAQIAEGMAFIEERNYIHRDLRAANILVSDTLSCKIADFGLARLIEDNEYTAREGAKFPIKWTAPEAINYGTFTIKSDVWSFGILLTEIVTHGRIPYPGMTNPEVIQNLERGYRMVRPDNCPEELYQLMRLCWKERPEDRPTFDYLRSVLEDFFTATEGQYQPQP
T2 sequence (P12931 whole entry): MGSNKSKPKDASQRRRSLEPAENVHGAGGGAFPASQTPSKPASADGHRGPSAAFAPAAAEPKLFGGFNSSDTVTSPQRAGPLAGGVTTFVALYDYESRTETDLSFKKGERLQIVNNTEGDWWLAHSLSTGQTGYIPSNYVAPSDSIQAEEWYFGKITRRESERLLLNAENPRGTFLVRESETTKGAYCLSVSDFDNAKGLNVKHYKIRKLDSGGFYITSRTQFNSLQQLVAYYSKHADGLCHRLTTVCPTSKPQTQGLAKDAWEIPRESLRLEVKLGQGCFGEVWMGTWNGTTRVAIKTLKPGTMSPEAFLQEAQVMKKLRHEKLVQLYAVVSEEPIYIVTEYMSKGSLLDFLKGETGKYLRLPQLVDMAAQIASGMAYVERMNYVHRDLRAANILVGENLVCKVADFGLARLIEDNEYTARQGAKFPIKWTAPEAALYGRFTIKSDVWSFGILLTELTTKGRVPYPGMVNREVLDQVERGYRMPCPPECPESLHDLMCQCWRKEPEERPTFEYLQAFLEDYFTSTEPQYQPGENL

SMILES | IC50 (human Yes1 enzyme) | IC50 (human Src enzyme) | IC50 (human Lck enzyme) | IC50 (human Yes1 enzyme; [1]) | IC50 (human Src enzyme; [1]) | IC50 (human Lck enzyme; [1])
Cc1cc(Oc2c(F)cccc2F)ncc1-n1ncc(C(=O)c2cc3cc(F)c(N4C(=O)NC5(COC5)C4=O)cc3[nH]2)c1N [Example 5-1-345, 7-[2-[5-amino-1-[6-(2,6-difluorophenoxy)-4-methylpyridin-3-yl]pyrazole-4-carbonyl]-5-fluoro-1H-indol-6-yl]-2-oxa-5,7-diazaspiro[3.4] octane-6,8-dione] | 1.6 nM | 47 nM | 3.2 nM |  |  | 
CC(=O)N1CCC(c2cc3[nH]c(C(=O)c4cnn(-c5cnc(Oc6c(F)cccc6F)cc5C)c4N)cc3cc2OCC(F)F)CC1 [Example 4-17-001, 1-{4-{2-{5-amino-1-{6-(2,6-difluorophenoxy)-4-methylpyridin-3-yl}pyrazole-4-carbonyl}-5-(2,2-difluoroethoxy)-1H-indol-6-yl}piperidin-1-yl}ethanone] |  |  |  | 4.5 nM | 26 nM | 12 nM
Cc1cc(Oc2ccccc2F)cc(F)c1-n1ncc(C(=O)c2cc3cc(OC(F)F)c(NC4COC4)cc3[nH]2)c1N [Example 4-23-011, [5-amino-1-[2-fluoro-4-(2-fluorophenoxy)-6-methylphenyl]pyrazol-4-yl]-[5-(difluoromethoxy)-6-(oxetan-3-ylamino)-1H-indol-2-yl]methanone] |  |  |  | 7.6 nM | 63 nM | 19 nM
Cc1cc(Oc2cccc(Cl)c2)ncc1-n1ncc(C(=O)c2cc3cc(Cl)c(NS(C)(=O)=O)cc3[nH]2)c1N [Example 4-2-091, N-[2-[5-amino-1-[6-(3-chlorophenoxy)-4-methylpyridin-3-yl]pyrazole-4-carbonyl]-5-chloro-1H-indol-6-yl]methanesulfonamide] |  |  |  | 9.7 nM | 350 nM | 140 nM
Cc1cc(Oc2ccccc2F)ccc1-n1ncc(C(=O)c2cc3cc(F)c(N4C(=O)NC5(CC5)C4=O)cc3[nH]2)c1N [Example 5-1-375, 6-[2-[5-amino-1-[4-(2-fluorophenoxy)-2-methylphenyl]pyrazole-4-carbonyl]-5-fluoro-1H-indol-6-yl]-4,6-diazaspiro[2.4]heptane-5,7-dione] | 2 nM | 24 nM | 7.1 nM |  |  | 
Nc1c(C(=O)c2cc3cc(F)c(NS(=O)(=O)CCCF)cc3[nH]2)cnn1-c1c(F)cc(Oc2ccccc2F)cc1F [Example 5-1-027, N-[2-[5-amino-1-[2,6-difluoro-4-(2-fluorophenoxy)phenyl]pyrazole-4-carbonyl]-5-fluoro-1H-indol-6-yl]-3-fluoropropane-1-sulfonamide] | 0.84 nM | 65 nM | 20 nM |  |  | 
Cc1cc2cc(C(=O)c3cnn(-c4ccc(Oc5ccccc5F)cc4C)c3N)[nH]c2cc1NS(=O)(=O)CCCF [Example 4-2-068, N-[2-[5-amino-1-[4-(2-fluorophenoxy)-2-methylphenyl]pyrazole-4-carbonyl]-5-methyl-1H-indol-6-yl]-3-fluoropropane-1-sulfonamide] |  |  |  | 1.8 nM | 28 nM | 21 nM
Cc1cc(Oc2ccccc2F)ncc1-n1ncc(C(=O)c2cc3cc(SC(F)F)c(NS(=O)(=O)CCCF)cc3[nH]2)c1N [Example 5-1-339, N-[2-[5-amino-1-[6-(2-fluorophenoxy)-4-methylpyridin-3-yl]pyrazole-4-carbonyl]-5-(difluoromethylsulfanyl)-1H-indol-6-yl]-3-fluoropropane-1-sulfonamide] | 5.7 nM | 540 nM | 74 nM |  |  | 
Cc1cc(Oc2c(F)cccc2F)ncc1-n1ncc(C(=O)c2cc3cc(F)c(N4C(=O)N[C@@H](CO)C4=O)cc3[nH]2)c1N [Example 5-1-407, (5S)-3-[2-[5-amino-1-[6-(2,6-difluorophenoxy)-4-methylpyridin-3-yl]pyrazole-4-carbonyl]-5-fluoro-1H-indol-6-yl]-5-(hydroxymethyl) imidazolidine-2,4-dione] |  |  |  | 2.2 nM | 74 nM | 3.5 nM
COc1ccccc1-c1cc2[nH]c(C(=O)c3cnn(-c4cnc(Oc5c(F)cccc5F)cc4C)c3N)cc2cc1OC1CCN(C2CCCC2)CC1 [Example 5-1-503, [5-amino-1-[6-(2,6-difluorophenoxy)-4-methylpyridin-3-yl]pyrazol-4-yl]-[5-(1-cyclopentylpiperidin-4-yl)oxy-6-(2-methoxyphenyl)-1H-indol-2-yl]methanone] |  |  |  | 1.9 nM | 87 nM | 15 nM
Cc1cc(-n2ncc(C(=O)c3cc4cc(OCC(F)F)c(N5CCOCC5)cc4[nH]3)c2N)ccc1Oc1ccccc1F [Example 5-1-169, [5-amino-1-[4-(2-fluorophenoxy)-3-methylphenyl]pyrazol-4-yl]-[5-(2,2-difluoroethoxy)-6-morpholin-4-yl-1H-indol-2-yl] methanone] | 0.88 nM | 100 nM | 46 nM |  |  | 
Cc1cc(Oc2c(F)cccc2F)ncc1-n1ncc(C(=O)c2cc3cc(F)c(-n4c(C)cc(=O)[nH]c4=O)cc3[nH]2)c1N [Example 5-1-101, 1-[2-[5-amino-1-[6-(2,6-difluorophenoxy)-4-methylpyridin-3-yl]pyrazole-4-carbonyl]-5-fluoro-1H-indol-6-yl]-6-methylpyrimidine-2,4-dione] | 1.9 nM | 25 nM | 1.1 nM |  |  | 
Cc1cc2cc(C(=O)c3cnn(-c4cnc(Oc5c(F)cccc5F)cc4C)c3N)[nH]c2cc1NS(=O)(=O)CC(=O)NC(C)C [Example 5-1-136, 2-[[2-[5-amino-1-[6-(2,6-difluorophenoxy)-4-methylpyridin-3-yl]pyrazole-4-carbonyl]-5-methyl-1H-indol-6-yl]sulfamoyl]-N-propan-2-ylacetamide] | 1.5 nM | 27 nM | 23 nM |  |  | 
Cc1cnc(F)c(S(=O)(=O)Nc2cc3[nH]c(C(=O)c4cnn(-c5cnc(Oc6ccccc6F)cc5C)c4N)cc3cc2C)c1 [Example 5-1-504, N-[2-[5-amino-1-[6-(2-fluorophenoxy)-4-methylpyridin-3-yl]pyrazole-4-carbonyl]-5-methyl-1H-indol-6-yl]-2-fluoro-5-methylpyridine-3-sulfonamide] |  |  |  | 3.6 nM | 630 nM | 140 nM
CONS(=O)(=O)Nc1cc2[nH]c(C(=O)c3cnn(-c4ccc(Oc5ccccc5F)cc4C)c3N)cc2cc1F [Example 4-5-009, [5-amino-1-[4-(2-fluorophenoxy)-2-methylphenyl]pyrazol-4-yl]-[5-fluoro-6-(methoxysulfamoylamino)-1H-indol-2-yl]methanone] |  |  |  | 0.68 nM | 35 nM | 12 nM
Cc1cccc(S(=O)(=O)Nc2cc3[nH]c(C(=O)c4cnn(-c5cnc(Oc6ccccc6F)cc5C)c4N)cc3cc2C)c1 [Example 5-1-462, N-[2-[5-amino-1-[6-(2-fluorophenoxy)-4-methylpyridin-3-yl]pyrazole-4-carbonyl]-5-methyl-1H-indol-6-yl]-3-methylbenzenesulfonamide] |  |  |  | 6.1 nM | 1000 nM | 260 nM
Cc1cc(Oc2c(F)cccc2F)ncc1-n1ncc(C(=O)c2cc3cc(OC4CCN(C(C)C)CC4)c(-c4cccs4)cc3[nH]2)c1N [Example 5-1-239, [5-amino-1-[6-(2,6-difluorophenoxy)-4-methylpyridin-3-yl]pyrazol-4-yl]-[5-(1-propan-2-ylpiperidin-4-yl)oxy-6-thiophen-2-yl-1H-indol-2-yl]methanone] | 5 nM | 40 nM | 16 nM |  |  | 
Cc1cc(-n2ncc(C(=O)c3cc4cc(OC5CCN(C6CCC6)CC5)c(Cl)cc4[nH]3)c2N)ccc1Oc1ccccc1F [Example 5-1-235, [5-amino-1-[4-(2-fluorophenoxy)-3-methylphenyl]pyrazol-4-yl]-[6-chloro-5-(1-cyclobutylpiperidin-4-yl)oxy-1H-indol-2-yl] methanone] | 2.9 nM | 430 nM | 85 nM |  |  | 
Cc1cc2cc(C(=O)c3cnn(-c4cnc(Oc5c(F)cccc5F)cc4C)c3N)[nH]c2cc1N1C(=O)NC(C)(C(F)(F)F)C1=O (stereo not drawn) [Example 5-1-429, 3-[2-[5-amino-1-[6-(2,6-difluorophenoxy)-4-methylpyridin-3-yl]pyrazole-4-carbonyl]-5-methyl-1H-indol-6-yl]-5-methyl-5-(trlfluoromethyl)imidazolidine-2,4-dione] |  |  |  | 7.5 nM | 190 nM | 25 nM
Cc1cc(Oc2c(F)cccc2F)ncc1-n1ncc(C(=O)c2cc3cc(OC(F)F)c(NS(=O)(=O)C4CC4)cc3[nH]2)c1N [Example 4-24-010, N-[2-[5-amino-1-[6-(2,6-difluorophenoxy)-4-methylpyridin-3-yl]pyrazole-4-carbonyl]-5-(difluoromethoxy)-1H-indol-6-yl]cyclopropanesulfonamide] |  |  |  | 4.3 nM | 150 nM | 36 nM
Cc1cc(Oc2ccccc2F)ccc1-n1ncc(C(=O)c2cc3cc(OC4CCN(C(C)C)CC4)c(Cl)cc3[nH]2)c1N [Example 5-1-197, [5-amino-1-[4-(2-fluorophenoxy)-2-methylphenyl]pyrazol-4-yl]-[6-chloro-5-(1-propan-2-ylpiperidin-4-yl)oxy-1H-indol-2-yl] methanone] | 0.87 nM | 7.7 nM | 8.3 nM |  |  | 
Cc1cc(Oc2ccccc2F)ccc1-n1ncc(C(=O)c2cc3cc(C(C)C)c(Br)cc3[nH]2)c1N [Example 5-1-260, [5-amino-1-[4-(2-fluorophenoxy)-2-methylphenyl]pyrazol-4-yl]-(6-bromo-5-propan-2-yl-1H-indol-2-yl)methanone] | 8.5 nM | 61 nM | 44 nM |  |  | 
